Laboratory results from PMC12728570, “Sphingomyelin synthase inhibitors from edible mushrooms prevent overweight and improve vitamin D homeostasis in a mouse model of diet-induced obesity” (Frontiers in Nutrition, 2025).
Like-named read-outs stand apart in the source and are kept apart here.

What was measured:
[1] = system: T1, SMS2 (sphingomyelin synthase 2); test: HPLC-fluorescence enzyme assay, ZS2 cell lysate; format: biochemical; conditions: Path 2: 5 μM C6-NBD-ceramide to NBD-SM; 5 μM C6-NBD-PC present; 37 °C, 30 min preincubation
T1 construct: gene SGMS2; stably expressed in SMS1/SMS2-deficient mouse embryonic fibroblasts (ZS2), cell lysate
Excerpt: HPLC-fluorescence enzyme assay, ZS2 cell lysate on SMS2 (sphingomyelin synthase 2)

[2] = system: T2, SMS1 (sphingomyelin synthase 1); test: HPLC-fluorescence enzyme assay, ZS2 cell lysate; format: biochemical; conditions: 37 °C, 30 min preincubation
T2 construct: gene SGMS1; stably expressed in SMS1/SMS2-deficient mouse embryonic fibroblasts (ZS2), cell lysate
Excerpt: HPLC-fluorescence enzyme assay, ZS2 cell lysate on SMS1 (sphingomyelin synthase 1)

Structure (SMILES)	IC50 [1]	IC50 ([2]; read-out: IC50 (μM) / SMS1 / Path 1)	IC50 ([2]; Path 2: 5 μM C6-NBD-ceramide to NBD-SM, 5 μM C6-NBD-PC present)
CC(C)=CCC/C(C)=C/CC/C(C)=C/Cc1c(O)cc(C)c(C(=O)O)c1O [grifolic acid]	2.5 µM	3 µM	
CC(C)=CCC/C(C)=C/CC/C(C)=C/Cc1c(O)cc(C)cc1O [grifolin]	3 µM		0.6 µM
